Laboratory results: ChEMBL document CHEMBL1201862, “PubChem BioAssay data set” (2004)
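Method: 48-hour compound exposure of cells in 96-well plates, five concentrations, linear interpolation of endpoints. GI50 is the concentration that inhibits growth by half.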 The source made the active and inactive calls. Cut-off read from the data, not from the text of the source: active = GI50 up to about 1.1 µM and inactive = higher.

How the values were obtained:
Experiment in all cases: inhibition of tumour cell growth, NCI panel, 48 h
MDA-MB-435 = test system: MDA-MB-435
COLO 205 = test system: COLO 205
SK-MEL-2 = test system: SK-MEL-2
HOP-62 = test system: HOP-62
ACHN = test system: ACHN
TK-10 = test system: TK-10
SK-OV-3 = test system: SK-OV-3
SN12C = test system: SN12C
OVCAR-5 = test system: OVCAR-5
SW-620 = test system: SW-620
CAKI-1 = test system: CAKI-1
M14 = test system: M14
OVCAR-3 = test system: OVCAR-3
SF-268 = test system: SF-268
A498 = test system: A498
SF-539 = test system: SF-539
UACC-62 = test system: UACC-62
EKVX = test system: EKVX
SK-MEL-5 = test system: SK-MEL-5
HCC 2998 = test system: HCC 2998
NCI/ADR-RES = test system: NCI/ADR-RES
NCI-H460 = test system: NCI-H460
HOP-92 = test system: HOP-92
OVCAR-4 = test system: OVCAR-4
U-251 = test system: U-251
BT-549 = test system: BT-549
SF-295 = test system: SF-295
SK-MEL-28 = test system: SK-MEL-28
IGROV-1 = test system: IGROV-1
MOLT-4 = test system: MOLT-4
T47D = test system: T47D
HL-60 = test system: HL-60
DU-145 = test system: DU-145
HT-29 = test system: HT-29
UACC-257 = test system: UACC-257
MDA-MB-231 = test system: MDA-MB-231
786-0 = test system: 786-0
HCT-15 = test system: HCT-15
HCT-116 = test system: HCT-116
KM12 = test system: KM12
NCI-H23 = test system: NCI-H23
UO-31 = test system: UO-31
MCF7 = test system: MCF7
LOX IMVI = test system: LOX IMVI
A549 = test system: A549
MDA-N = test system: MDA-N
OVCAR-8 = test system: OVCAR-8
SNB-19 = test system: SNB-19
SNB-75 = test system: SNB-75
RXF 393 = test system: RXF 393
NCI-H226 = test system: NCI-H226
K562 = test system: K562
Malme-3M = test system: Malme-3M
CCRF-CEM = test system: CCRF-CEM
PC-3 = test system: PC-3
Hs-578T = test system: Hs-578T
RPMI-8226 = test system: RPMI-8226
SR = test system: SR
NCI-H522 = test system: NCI-H522

For CCOP(=O)(OCC)/C(=C\N1C(=O)CC(=O)NC1=S)C(=O)OC, the GI50 (MDA-MB-435) was > 100 µM (inactive), the GI50 (COLO 205) was > 100 µM (inactive) and the GI50 (SK-MEL-2) was > 100 µM (inactive). The GI50 (HOP-62) was > 100 µM (inactive), the GI50 (ACHN) was > 100 µM (inactive) and the GI50 (TK-10) was > 100 µM (inactive). The GI50 (SK-OV-3) was > 100 µM (inactive), the GI50 (SN12C) was > 100 µM (inactive) and the GI50 (OVCAR-5) was > 100 µM (inactive). The GI50 (SW-620) was > 100 µM (inactive), the GI50 (CAKI-1) was > 100 µM (inactive) and the GI50 (M14) was > 100 µM (inactive). The GI50 (OVCAR-3) was > 100 µM (inactive), the GI50 (SF-268) was > 100 µM (inactive) and the GI50 (A498) was > 100 µM (inactive). For the same molecule, the GI50 (SF-539) was > 100 µM (inactive), the GI50 (UACC-62) was > 100 µM (inactive) and the GI50 (EKVX) was > 100 µM (inactive). The GI50 (SK-MEL-5) was > 100 µM (inactive), the GI50 (HCC 2998) was > 100 µM (inactive) and the GI50 (NCI/ADR-RES) was > 100 µM (inactive). For the same molecule, the GI50 (NCI-H460) was > 100 µM (inactive), the GI50 (HOP-92) was > 100 µM (inactive) and the GI50 (OVCAR-4) was > 100 µM (inactive). The GI50 (U-251) was > 100 µM (inactive), the GI50 (BT-549) was > 100 µM (inactive) and the GI50 (SF-295) was > 100 µM (inactive). The GI50 (SK-MEL-28) was > 100 µM (inactive), the GI50 (IGROV-1) was > 100 µM (inactive) and the GI50 (MOLT-4) was > 100 µM (inactive). The GI50 (T47D) was > 100 µM (inactive), the GI50 (HL-60) was > 100 µM (inactive) and the GI50 (DU-145) was > 100 µM (inactive). For the same molecule, the GI50 (HT-29) was > 100 µM (inactive), the GI50 (UACC-257) was > 100 µM (inactive) and the GI50 (MDA-MB-231) was > 100 µM (inactive). For the same molecule, the GI50 (786-0) was > 100 µM (inactive), the GI50 (HCT-15) was greater than 100 µM and the GI50 (HCT-116) was > 100 µM (inactive). The GI50 (KM12) was > 100 µM (inactive), the GI50 (NCI-H23) was > 100 µM (inactive) and the GI50 (UO-31) was > 100 µM (inactive). For the same molecule, the GI50 (MCF7) was > 100 µM (inactive), the GI50 (LOX IMVI) was > 100 µM (inactive) and the GI50 (A549) was > 100 µM (inactive). For the same molecule, the GI50 (MDA-N) was > 100 µM (inactive), the GI50 (OVCAR-8) was > 100 µM (inactive) and the GI50 (SNB-19) was > 100 µM (inactive). The GI50 (SNB-75) was > 100 µM (inactive), the GI50 (RXF 393) was > 100 µM (inactive) and the GI50 (NCI-H226) was > 100 µM (inactive).
In the case of COC(=O)C(Cc1ccccc1)NC(=O)CNC(=O)CSc1nnc(COc2ccc(Cl)cc2)n1-c1ccccc1 (centres undefined), the GI50 (MDA-MB-435) is reported as 18.2 µM (inactive), the GI50 (COLO 205) is reported as 16.2 µM (inactive) and the GI50 (SK-MEL-2) is reported as 17 µM (inactive). The GI50 (HOP-62) was 17.7 µM (inactive), the GI50 (ACHN) was 14.2 µM (inactive) and the GI50 (TK-10) was 14.5 µM (inactive). For the same molecule, the GI50 (K562) was 25.3 µM (inactive), the GI50 (SK-OV-3) was 14.5 µM (inactive) and the GI50 (SN12C) was 17.9 µM (inactive). The GI50 (OVCAR-5) was 18.7 µM (inactive), the GI50 (SW-620) was 20.4 µM (inactive) and the GI50 (CAKI-1) was 12.7 µM (inactive). For the same molecule, the GI50 (M14) was 17.7 µM (inactive), the GI50 (OVCAR-3) was 16.7 µM (inactive) and the GI50 (SF-268) was 17.1 µM (inactive). The GI50 (A498) was 15.5 µM (inactive), the GI50 (SF-539) was 17.6 µM (inactive) and the GI50 (UACC-62) was 14.5 µM (inactive). The GI50 (EKVX) was 20.4 µM (inactive), the GI50 (SK-MEL-5) was 16.1 µM (inactive) and the GI50 (Malme-3M) was 18.7 µM (inactive). For the same molecule, the GI50 (HCC 2998) was 12 µM (inactive), the GI50 (NCI/ADR-RES) was 20 µM (inactive) and the GI50 (CCRF-CEM) was 2.86 µM (inactive). The GI50 (NCI-H460) was 16.3 µM (inactive), the GI50 (HOP-92) was 17.4 µM (inactive) and the GI50 (OVCAR-4) was 6.73 µM (inactive). The GI50 (U-251) was 18.2 µM (inactive), the GI50 (BT-549) was 18.7 µM (inactive) and the GI50 (SF-295) was 17.8 µM (inactive). For the same molecule, the GI50 (SK-MEL-28) was 18 µM (inactive), the GI50 (IGROV-1) was 15.4 µM (inactive) and the GI50 (PC-3) was 17.1 µM (inactive). For the same molecule, the GI50 (Hs-578T) was 26.5 µM (inactive), the GI50 (RPMI-8226) was 4.74 µM (inactive) and the GI50 (MOLT-4) was 3.55 µM (inactive). For the same molecule, the GI50 (T47D) was 12.5 µM (inactive), the GI50 (HL-60) was 4.8 µM (inactive) and the GI50 (DU-145) was 17.5 µM (inactive). The GI50 (SR) was 2.64 µM (inactive), the GI50 (HT-29) was 18.8 µM (inactive) and the GI50 (UACC-257) was 15.2 µM (inactive). The GI50 (MDA-MB-231) was 17 µM (inactive), the GI50 (786-0) was 16.7 µM (inactive) and the GI50 (HCT-15) was 18.1 µM. The GI50 (HCT-116) was 17.8 µM (inactive), the GI50 (KM12) was 18.7 µM (inactive) and the GI50 (NCI-H23) was 18.7 µM (inactive). The GI50 (UO-31) was 1.69 µM (inactive), the GI50 (MCF7) was 18.2 µM (inactive) and the GI50 (LOX IMVI) was 3.69 µM (inactive). The GI50 (NCI-H522) was 2.27 µM (inactive), the GI50 (A549) was 17.8 µM (inactive) and the GI50 (OVCAR-8) was 13.7 µM (inactive). For the same molecule, the GI50 (SNB-19) was 17.2 µM (inactive), the GI50 (SNB-75) was 17.9 µM (inactive) and the GI50 (RXF 393) was 16.7 µM (inactive). For the same molecule, the GI50 (NCI-H226) was 16.5 µM (inactive).
